Measurements reported in patent publication US20240109868A1, “EP300/CBP MODULATOR, PREPARATION METHOD THEREFOR AND USE THEREOF” (Miracure Biotechnology Limited, priority 2022, published 2024).

Tests used:
22Rv1 Cell = test: 22RV1 cell growth inhibition, CellTiter-Glo, 72 h; format: cell-based; conditions: Homo sapiens, 22Rv1, 72 h, 22RV1 cells, 72 h culture
Method: (§1) 22RV1 or vCap cells were cultured in RPMI-1640 medium (10% fetal bovine serum and 100 units (per mL) of penicillin/streptomycin dual antibody were added to RPMI-1640) in a 37° C., 5% CO2 cell incubator. Cells at the logarithmic growth phase were inoculated onto a 96-well cell culture plate at 5×10^3 cells/100 μL/well and cultured overnight. Solutions of different concentrations of an active compound in DMSO were added, with the final concentration being 0.5% DMSO. The positive control was 1% TweeN2O, and the negative control was 0.5% DMSO. After 72 h of culture, an equal volume of CellTiter-Glo was added to each well, and the mixtures were mixed homogeneously by shaking for 2 min. The plate was let stand at room temperature for 10 min, and fluorescence signal values were read using a microplate reader. Data were analyzed using Prism 7.0 and graphs were generated. The values are shown as mean f SEM (N=2). […] The X-axis represents compound concentration (μM), and the Y-axis represents % inhibition.

vCap Cell = test: vCap cell growth inhibition, CellTiter-Glo, 72 h; format: cell-based; conditions: Homo sapiens, VCaP, 72 h, vCap cells, 72 h culture
Method: as §1

| SMILES | IC50 (22Rv1 Cell) [µM] | IC50 (vCap Cell) [µM] |
| --- | --- | --- |
| CNC(=O)N1CCc2cc(C3CCN(CC(F)F)CC3)cc(N3CCCc4cc(-c5cnn(C)c5)c(C(F)F)cc43)c2C1 [Compound M001055] | > 1 | > 1 |
| CC(=O)N1Cc2cc(C3CCN(C4COC4)CC3)cc(N3CCCc4cc(-c5cnn(C)c5)c(C(F)F)cc43)c2C1 [Compound M001056] | > 1 | > 1 |
| CC(=O)N1Cc2cc(C3CCN(CC(F)(F)F)CC3)cc(N3CCCc4cc(-c5cnn(C)c5)c(C(F)F)cc43)c2C1 [Compound M001057] | > 1 | > 1 |
| CNC(=O)N1CCc2cc(C3CCN(C(C)=O)CC3)cc(N3CCCc4cc(-c5cnn(C)c5)c(C(F)F)cc43)c2C1 [Compound M001068] | < 1 | < 1 |
| CNC(=O)N1CCc2cc(C3CCN(C(=O)C4CC4)CC3)cc(N3CCCc4cc(-c5cnn(C)c5)c(C(F)F)cc43)c2C1 [Compound M001069] | < 1 | > 1 |
| CNC(=O)N1CCc2cc(C3CCN(CC#N)CC3)cc(N3CCCc4cc(-c5cnn(C)c5)c(C(F)F)cc43)c2C1 [Compound M001070] | > 1 | > 1 |
| CC(=O)N1CCC(c2cc3c(c(N4CCCc5cc(-c6cnn(C)c6)c(C(F)F)cc54)c2)CN(C(C)=O)C3)CC1 [Compound M001071] | > 1 | > 1 |
| CC(=O)N1Cc2cc(C3CCN(CC#N)CC3)cc(N3CCCc4cc(-c5cnn(C)c5)c(C(F)F)cc43)c2C1 [Compound M001074] | < 1 | < 1 |
| CNC(=O)N1CCc2cc(C3CCN(C(=O)C4CCNC4)CC3)cc(N3CCCc4cc(-c5cnn(C)c5)c(C(F)F)cc43)c2C1 (stereo not shown) [Compound M001075] | > 1 | > 1 |
| CC(=O)N1Cc2cc(C3CCN(C(=O)c4ccccc4)CC3)cc(N3CCCc4cc(-c5cnn(C)c5)c(C(F)F)cc43)c2C1 [Compound M001081] | < 1 | < 1 |
| CNC(=O)N1CCc2cc(C3CCN(C(=O)C4CCN(C)C4)CC3)cc(N3CCCc4cc(-c5cnn(C)c5)c(C(F)F)cc43)c2C1 (stereo not shown) [Compound M001085] | > 1 | > 1 |
| CNC(=O)N1CCc2cc(C3=CC4CCC(C3)N4)cc(N3CCCc4cc(-c5cnn(C)c5)c(C(F)F)cc43)c2C1 (stereo not shown) [Compound M001088] | > 1 | > 1 |
| CNC(=O)N1CCc2cc(C3CC4CCC(C3)N4)cc(N3CCCc4cc(-c5cnn(C)c5)c(C(F)F)cc43)c2C1 (stereo not shown) [Compound M001089] | > 1 | > 1 |
| CNC(=O)N1Cc2cc(C3CC4CCC(C3)N4C)cc(N3CCCc4cc(-c5cnn(C)c5)c(C(F)F)cc43)c2C1 (stereo not shown) [Compound M001092] | > 1 | > 1 |
| CNC(=O)N1Cc2cc(C3CC4CCC(C3)N4C(C)=O)cc(N3CCCc4cc(-c5cnn(C)c5)c(C(F)F)cc43)c2C1 (stereo not shown) [Compound M001095] | > 1 | > 1 |
| CNC(=O)N1Cc2cc(C3=CCN(C(=O)OCc4ccccc4)CC3)cc(N3CCCc4cc(-c5cnn(C)c5)c(C(F)F)cc43)c2C1 [Compound M001096] | > 1 | > 1 |
| CNC(=O)N1Cc2cc(C3=CC4CCC(C3)N4C(=O)OC(C)(C)C)cc(N3CCCc4cc(-c5cnn(C)c5)c(C(F)F)cc43)c2C1 (stereo not shown) [Compound M001097] | > 1 | > 1 |
| CNC(=O)N1Cc2cc(C3=CC4CCC(C3)N4)cc(N3CCCc4cc(-c5cnn(C)c5)c(C(F)F)cc43)c2C1 (stereo not shown) [Compound M001098] | > 1 | > 1 |
| CNC(=O)N1Cc2cc(C3CC4CCC(C3)N4)cc(N3CCCc4cc(-c5cnn(C)c5)c(C(F)F)cc43)c2C1 (stereo not shown) [Compound M001099] | > 1 | > 1 |
| CC(=O)N1Cc2cc(C3CCC4(CC3)OCCO4)cc(N3CCCc4cc(-c5cnn(C)c5)c(C(F)F)cc43)c2C1 [Compound M001101] | < 1 | < 1 |
| CNC(=O)N1Cc2cc(C3CC4CCC(C3)N4C(=O)NC)cc(N3CCCc4cc(-c5cnn(C)c5)c(C(F)F)cc43)c2C1 (stereo not shown) [Compound M001116] | > 1 | > 1 |

The remaining lines, values ahead:

| IC50 (22Rv1 Cell) [µM] | IC50 (vCap Cell) [µM] | SMILES |
| --- | --- | --- |
| > 1 | > 1 | CC(=O)N1Cc2cc(C3CCN(CC(F)F)CC3)cc(N3CCCc4cc(-c5cnn(C)c5)c(C(F)F)cc43)c2C1 [Compound M001058] |
| > 1 | > 1 | CNC(=O)N1CCc2cc(C3CCN(C4COC4)CC3)cc(N3CCCc4cc(-c5cnn(C)c5)c(C(F)F)cc43)c2C1 [Compound M001059] |
| > 1 | > 1 | CNC(=O)N1CCc2cc(C3CCN(CC(F)(F)F)CC3)cc(N3CCCc4cc(-c5cnn(C)c5)c(C(F)F)cc43)c2C1 [Compound M001060] |
| > 1 | < 1 | CC(=O)N1Cc2cc(C3CCC(O)CC3)cc(N3CCCc4cc(-c5cnn(C)c5)c(C(F)F)cc43)c2C1 (stereo not shown) [Compound M001064] |
| > 1 | > 1 | CC(=O)N1Cc2cc(C3CCC(F)(F)CC3)cc(N3CCCc4cc(-c5cnn(C)c5)c(C(F)F)cc43)c2C1 [Compound M001066] |
| > 1 | > 1 | CC(=O)N1Cc2cc(C3CCN(C(=O)C4CC4)CC3)cc(N3CCCc4cc(-c5cnn(C)c5)c(C(F)F)cc43)c2C1 [Compound M001072] |
| > 1 | > 1 | CC(=O)N1Cc2cc(C3CCN(C(=O)C(C)O)CC3)cc(N3CCCc4cc(-c5cnn(C)c5)c(C(F)F)cc43)c2C1 (stereo not shown) [Compound M001073] |
| > 1 | > 1 | CC(=O)N1Cc2cc(C3CCN(C(=O)C4CNC4)CC3)cc(N3CCCc4cc(-c5cnn(C)c5)c(C(F)F)cc43)c2C1 [Compound M001079] |
| > 1 | > 1 | CC(=O)N1Cc2cc(C3CCN(C(=O)C4CCNC4)CC3)cc(N3CCCc4cc(-c5cnn(C)c5)c(C(F)F)cc43)c2C1 (stereo not shown) [Compound M001080] |
| > 1 | > 1 | CNC(=O)N1CCc2cc(C3CCN(C(=O)C4CNC4)CC3)cc(N3CCCc4cc(-c5cnn(C)c5)c(C(F)F)cc43)c2C1 [Compound M001083] |
| > 1 | > 1 | CNC(=O)N1CCc2cc(C3CCN(C(=O)C4CN(C)C4)CC3)cc(N3CCCc4cc(-c5cnn(C)c5)c(C(F)F)cc43)c2C1 [Compound M001084] |
| > 1 | > 1 | CC(=O)N1Cc2cc(C3CCN(C(=O)C4CN(C)C4)CC3)cc(N3CCCc4cc(-c5cnn(C)c5)c(C(F)F)cc43)c2C1 [Compound M001086] |
| > 1 | > 1 | CC(=O)N1Cc2cc(C3CCN(C(=O)C4CCN(C)C4)CC3)cc(N3CCCc4cc(-c5cnn(C)c5)c(C(F)F)cc43)c2C1 (stereo not shown) [Compound M001087] |
| > 1 | > 1 | CNC(=O)N1CCc2cc(C3=CCC4(CC3)OCCO4)cc(N3CCCc4cc(-c5cnn(C)c5)c(C(F)F)cc43)c2C1 [Compound M001090] |
| > 1 | > 1 | CNC(=O)N1Cc2cc(C3CCC(F)(F)CC3)cc(N3CCCc4cc(-c5cnn(C)c5)c(C(F)F)cc43)c2C1 [Compound M001094] |
| > 1 | < 1 | CC(=O)N1Cc2cc(C3CCC(=O)CC3)cc(N3CCCc4cc(-c5cnn(C)c5)c(C(F)F)cc43)c2C1 [Compound M001102] |
| > 1 | > 1 | CNC(=O)N1CCc2cc(C3CCC(=O)CC3)cc(N3CCCc4cc(-c5cnn(C)c5)c(C(F)F)cc43)c2C1 [Compound M001103] |
